We go through one compound from patent publication US7078057B2, “Process for producing nanometer particles by fluid bed spray-drying” (priority 1999, dated 2006).

This data set is described as follows: Particle size by laser diffraction using photo correlation spectroscopy (Nicomp C370). It is filed as physicochemical. The note with it: ganaxolone particles in spray-dried mixture with lactose (Example I). The method, then: For purposes of the present invention, particle size in the mixtures is determined by a laser diffraction technique using photo correlation spectroscopy (Nicomp C370). The results are reported in terms of volume-weighted mean diameter. Volume-weighted mean diameter is defined as follows: (Σnd^4)/(Σnd^3) where n=the number of particles in a size interval characterized by a diameter “d”. Remington's Pharmaceutical Sciences, 18th edition, Mack Publishing Company, Easton, Pa. (1990).
Approximately 100 g of ganaxolone was dissolved in 5 kg of ethanol with slight warming to 30° C. The solution was sprayed into 1 kg of spray-dried lactose NF (Fast Flo #316) in a Vector FL-M-1 fluid bed system equipped with a 6″ Wurster column. The spray rate was 34–41 mL/min using one gun. The static inlet pressure was 2.5–8 bar (250–800 kPa) affording an air flow of 25–45 cfm. The inlet temperature was 85–90° C. and the product temperature was 27–48° C. The resulting ganaxolone powder mixture was free-flowing and contained 63 mg ganaxolone per g of powder. The ganaxolone particle size in the mixture was determined by a laser diffraction technique using photo correlation spectroscopy (Nicomp C370).

Regarding `CC(=O)[C@H]1CC[C@H]2[C@@H]3CC[C@H]4C[C@](C)(O)CC[C@]4(C)[C@H]3CC[C@]12C` [ganaxolone, 3α-hydroxy-3β-methyl-5α-pregnan-20-one], the volume-weighted mean diameter was found to be 660 nm.
